Values after ≈ are worked out from the molar mass of the structure shown.
Tests used:
[1] = tested on: Enterobacter cloacae 1321E; assay: Antibacterial activity test (agar dilution MIC); type: cell-based
Experimental: (§1) Gram-positive Streptococcus and Staphylococcus and Gram-negative Escherichia coli, Pseudomonas, Salmonella, Klebsiella and Enterobacter were selected for the test. After the cells were diluted and cultured in agar, the compounds of the present invention were treated to obtain the minimum inhibitory concentration in the units of μg/ml.

Enterobacter cloacae P99 = assay: Antibacterial activity test (agar dilution MIC); type: cell-based
Experimental: as §1

Escherichia coli 078 [2] = assay: Antibacterial activity test (agar dilution MIC); type: cell-based; conditions: Escherichia coli 078, agar
Experimental: as §1

Escherichia coli 1507E = assay: Antibacterial activity test (agar dilution MIC); type: cell-based
Experimental: as §1

Escherichia coli DC0 = assay: Antibacterial activity test (agar dilution MIC); type: cell-based
Experimental: as §1

Escherichia coli DC2 = assay: Antibacterial activity test (agar dilution MIC); type: cell-based
Experimental: as §1

Escherichia coli TEM = assay: Antibacterial activity test (agar dilution MIC); type: cell-based; conditions: for Minimum inhibitory concentration: Escherichia coli TEM, agar
Experimental: as §1

[3] = tested on: Klebsiella aerogenes 1522E; assay: Antibacterial activity test (agar dilution MIC); type: cell-based
Experimental: as §1

Klebsiella oxytoca 1082E = assay: Antibacterial activity test (agar dilution MIC); type: cell-based
Experimental: as §1

[4] = tested on: Pseudomonas aeruginosa 1592E; assay: Antibacterial activity test (agar dilution MIC); type: cell-based
Experimental: as §1

[5] = tested on: Pseudomonas aeruginosa 1771M; assay: Antibacterial activity test (agar dilution MIC); type: cell-based
Experimental: as §1

[6] = tested on: Pseudomonas aeruginosa 1771; assay: Antibacterial activity test (agar dilution MIC); type: cell-based; conditions: Pseudomonas aeruginosa 1771, agar
Experimental: as §1

[7] = tested on: Pseudomonas aeruginosa 9027; assay: Antibacterial activity test (agar dilution MIC); type: cell-based; conditions: Pseudomonas aeruginosa 9027, agar
Experimental: as §1

Salmonella typhimurium = assay: Antibacterial activity test (agar dilution MIC); type: cell-based
Experimental: as §1

[8] = tested on: Staphylococcus aureus 285; assay: Antibacterial activity test (agar dilution MIC); type: cell-based; conditions: Staphylococcus aureus 285, agar
Experimental: as §1

[9] = tested on: Staphylococcus aureus 503; assay: Antibacterial activity test (agar dilution MIC); type: cell-based; conditions: Staphylococcus aureus 503, agar
Experimental: as §1

[10] = tested on: Staphylococcus aureus SG511; assay: Antibacterial activity test (agar dilution MIC); type: cell-based
Experimental: as §1

[11] = tested on: Streptococcus faecium MD8b; assay: Antibacterial activity test (agar dilution MIC); type: cell-based
Experimental: as §1

[12] = tested on: Streptococcus pyogenes 308A; assay: Antibacterial activity test (agar dilution MIC); type: cell-based
Experimental: as §1

[13] = tested on: Streptococcus pyogenes 77A; assay: Antibacterial activity test (agar dilution MIC); type: cell-based
Experimental: as §1

[14] = biological target: DHP-I (renal dehydropeptidase-I) (Homo sapiens, UniProt P16444); assay: in vitro; conditions: renal enzyme DHP-I
DHP-I (renal dehydropeptidase-I), sequence (P16444 17-385): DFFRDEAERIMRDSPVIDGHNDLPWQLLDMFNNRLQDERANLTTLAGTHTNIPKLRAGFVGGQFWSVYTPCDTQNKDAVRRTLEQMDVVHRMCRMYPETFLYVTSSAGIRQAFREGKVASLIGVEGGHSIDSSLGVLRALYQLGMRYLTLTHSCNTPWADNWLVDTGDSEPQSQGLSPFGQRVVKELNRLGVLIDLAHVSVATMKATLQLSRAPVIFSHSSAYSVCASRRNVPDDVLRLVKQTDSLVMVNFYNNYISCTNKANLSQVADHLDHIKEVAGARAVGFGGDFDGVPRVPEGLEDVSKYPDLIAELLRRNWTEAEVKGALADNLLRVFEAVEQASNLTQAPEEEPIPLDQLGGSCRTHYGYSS

[15] = Bioavailability test, subcutaneous injection to mice; type: in vivo
Escherichia coli 078 [16] = assay: PD50 test using mice; type: in vivo; set-up: PD50: unit not given beside the values; conditions: Escherichia coli 078
Source text: (§2) This means that ⅓ of the amount of the compound 10 has the same effect as meropenem.
(§3) Streptococcus pyrogenes A 77 and Escherichia coli 078 were selected as gram-positive and gram-negative strains, respectively.

[17] = tested on: Streptococcus pyrogenes A 77; assay: PD50 test using mice; type: in vivo; set-up: PD50: unit not given beside the values; conditions: Streptococcus pyrogenes A 77
Source text: as §2, §3

[18] = read-out: Minimum inhibitory concentration

`CNS(=O)(=O)CCNC(=O)[C@@H]1C[C@H](SC2=C(C(=O)O)N3C(=O)[C@H]([C@@H](C)O)[C@H]3[C@H]2C)CN1` [Compound 11] gave an MIC [1, 18] of 0.025 µg/mL (≈ 0.0525 µM), an MIC (Enterobacter cloacae P99; [18]) of 0.049 µg/mL (≈ 0.103 µM) and an MIC (Escherichia coli 078 [2]; [18]) of 0.025 µg/mL (≈ 0.0525 µM). The MIC (Escherichia coli 1507E; [18]) was 0.013 µg/mL (≈ 0.0273 µM), the MIC (Escherichia coli DC0; [18]) was 0.025 µg/mL (≈ 0.0525 µM) and the MIC (Escherichia coli DC2; [18]) was 0.025 µg/mL (≈ 0.0525 µM). It also gave an MIC (Escherichia coli TEM; Escherichia coli, read-out: Minimum inhibitory concentration) of 0.013 µg/mL (≈ 0.0273 µM), an MIC [3, 18] of 0.049 µg/mL (≈ 0.103 µM) and an MIC (Klebsiella oxytoca 1082E; [18]) of 0.049 µg/mL (≈ 0.103 µM). The MIC [4, 18] was 0.195 µg/mL (≈ 0.409 µM), the MIC ([5]; Pseudomonas aeruginosa, 1771M, read-out: Minimum inhibitory concentration) was 0.195 µg/mL (≈ 0.409 µM) and the MIC [6, 18] was 0.195 µg/mL (≈ 0.409 µM). The MIC [7, 18] was 0.391 µg/mL (≈ 0.82 µM), the MIC (Salmonella typhimurium; Salmonella enterica, read-out: Minimum inhibitory concentration) was 0.025 µg/mL (≈ 0.0525 µM) and the MIC [8, 18] was 0.195 µg/mL (≈ 0.409 µM). It also gave an MIC [9, 18] of 0.098 µg/mL (≈ 0.206 µM), an MIC [10, 18] of 0.098 µg/mL (≈ 0.206 µM) and an MIC ([11]; Enterococcus faecium, read-out: Minimum inhibitory concentration) of 6.25 µg/mL (≈ 13.1 µM). The MIC [12, 18] was 0.013 µg/mL (≈ 0.0273 µM) and the MIC [13, 18] was 0.004 µg/mL (≈ 0.00839 µM).

For `C[C@@H](O)[C@H]1C(=O)N2C(C(=O)O)=C(S[C@@H]3CN[C@H](C(=O)NCCS(=O)(=O)NCCO)C3)[C@H](C)[C@H]12` [Compound 13], the Minimum inhibitory concentration [1] was 0.013 µg/mL (≈ 0.0257 µM), the Minimum inhibitory concentration (Enterobacter cloacae P99) was 0.049 µg/mL (≈ 0.0967 µM) and the Minimum inhibitory concentration (Escherichia coli 078 [2]) was 0.013 µg/mL (≈ 0.0257 µM). For the same compound, the Minimum inhibitory concentration (Escherichia coli 1507E) was 0.025 µg/mL (≈ 0.0493 µM), the Minimum inhibitory concentration (Escherichia coli DC0) was 0.025 µg/mL (≈ 0.0493 µM) and the Minimum inhibitory concentration (Escherichia coli DC2) was 0.025 µg/mL (≈ 0.0493 µM). The Minimum inhibitory concentration (Escherichia coli TEM) was 0.013 µg/mL (≈ 0.0257 µM), the Minimum inhibitory concentration [3] was 0.025 µg/mL (≈ 0.0493 µM) and the Minimum inhibitory concentration (Klebsiella oxytoca 1082E) was 0.049 µg/mL (≈ 0.0967 µM). The Minimum inhibitory concentration [4] was 1.563 µg/mL (≈ 3.09 µM), the Minimum inhibitory concentration ([5]; Pseudomonas aeruginosa 1771M, agar) was 0.391 µg/mL (≈ 0.772 µM) and the Minimum inhibitory concentration [6] was 1.563 µg/mL (≈ 3.09 µM). For the same compound, the Minimum inhibitory concentration [7] was 1.563 µg/mL (≈ 3.09 µM), the Minimum inhibitory concentration (Salmonella typhimurium) was 0.025 µg/mL (≈ 0.0493 µM) and the Minimum inhibitory concentration [8] was 0.195 µg/mL (≈ 0.385 µM). It also gave a Minimum inhibitory concentration [9] of 0.098 µg/mL (≈ 0.193 µM), a Minimum inhibitory concentration [10] of 0.195 µg/mL (≈ 0.385 µM) and a Minimum inhibitory concentration [11] of 12.5 µg/mL (≈ 24.7 µM). The Minimum inhibitory concentration [12] was 0.013 µg/mL (≈ 0.0257 µM) and the Minimum inhibitory concentration [13] was 0.007 µg/mL (≈ 0.0138 µM).

`C[C@@H](O)[C@H]1C(=O)N2C(C(=O)O)=C(S[C@@H]3CN[C@H](C(=O)NCCS(=O)(=O)N4CCCC4)C3)[C@H](C)[C@H]12` [Compound 15] gave a Minimum inhibitory concentration [1] of 0.025 µg/mL (≈ 0.0484 µM), a Minimum inhibitory concentration (Enterobacter cloacae P99) of 0.049 µg/mL (≈ 0.0948 µM) and a Minimum inhibitory concentration (Escherichia coli 078 [2]) of 0.025 µg/mL (≈ 0.0484 µM). It also gave a Minimum inhibitory concentration (Escherichia coli 1507E) of 0.025 µg/mL (≈ 0.0484 µM), a Minimum inhibitory concentration (Escherichia coli DC0) of 0.025 µg/mL (≈ 0.0484 µM) and a Minimum inhibitory concentration (Escherichia coli DC2) of 0.049 µg/mL (≈ 0.0948 µM). It also gave a Minimum inhibitory concentration (Escherichia coli TEM) of 0.025 µg/mL (≈ 0.0484 µM), a Minimum inhibitory concentration [3] of 0.049 µg/mL (≈ 0.0948 µM) and a Minimum inhibitory concentration (Klebsiella oxytoca 1082E) of 0.098 µg/mL (≈ 0.19 µM). For the same compound, the Minimum inhibitory concentration [4] was 0.391 µg/mL (≈ 0.757 µM), the Minimum inhibitory concentration [6] was 0.781 µg/mL (≈ 1.51 µM) and the Minimum inhibitory concentration [7] was 0.391 µg/mL (≈ 0.757 µM). The Minimum inhibitory concentration (Salmonella typhimurium) was 0.049 µg/mL (≈ 0.0948 µM), the Minimum inhibitory concentration [8] was 0.195 µg/mL (≈ 0.377 µM) and the Minimum inhibitory concentration [9] was 0.195 µg/mL (≈ 0.377 µM). It also gave a Minimum inhibitory concentration [10] of 0.195 µg/mL (≈ 0.377 µM), a Minimum inhibitory concentration [11] of 12.5 µg/mL (≈ 24.2 µM) and a Minimum inhibitory concentration [12] of 0.013 µg/mL (≈ 0.0252 µM). It also gave a Minimum inhibitory concentration [13] of 0.007 µg/mL (≈ 0.0135 µM).

`C[C@@H](O)[C@H]1C(=O)N2C(C(=O)O)=C(SCCN=CN)C[C@H]12` [imipenem, reference compound] showed a half-life [14] of 30 min.

Compound `C[C@@H](O)[C@H]1C(=O)N2C(C(=O)O)=C(S[C@@H]3CN[C@H](C(=O)N(C)C)C3)[C@H](C)[C@H]12` [meropenem, reference compound] has a Cmax [15] of 7600 ± 550 ng/mL, a T1/2 [15] of 14.4 ± 13.2 min and a Tmax [15] of 12.6 ± 2.4 min. The AUC ([15]; mouse, in vivo, sc, AUC 0-2 hr) was 3290 ± 290 ng·h/mL, the PD50 (Escherichia coli 078 [16]) was 1.24 and the PD50 [17] was 7.16.

— US6436921B1, “Carbapenem derivatives and a preparation method thereof” (Korea Institute of Science and Technology, priority 1997, dated 2002)
